*1 amine or outer side, *2 acyl side, *3 side chain or, on linkers, in order; H or OH if unused. Where a SMILES comes first, the peptide text is derived from it. Bridges are numbered along the chain shown (N, C = ends). [ ]: non-standard residue; d: D form. The star is where a group is joined. ξ: configuration not given here. Phe(3-CF3) = N[C@@H](Cc1cccc(C(F)(F)F)c1)C(=O)O; Phe(4-COOH) = N[C@@H](Cc1ccc(C(=O)O)cc1)C(=O)O; Bip = N[C@@H](Cc1ccc(-c2ccccc2)cc1)C(=O)O; Phe(3-Me) = Cc1cccc(C[C@H](N)C(=O)O)c1; γGlu = O=C(O)[C@H](CCC(=O)[*:2])N[*:1]; NH(CH2)12COOH = O=C(O)CCCCCCCCCCCCN*; Val(3-OH) = CC(C)(O)[C@H](N)C(=O)O; 4Pal = N[C@@H](Cc1ccncc1)C(=O)O; 3Thi = N[C@@H](Cc1ccsc1)C(=O)O; Cha = N[C@@H](CC1CCCCC1)C(=O)O; Ile(3ξ) = CCC(C)[C@H](N)C(=O)O; Thr(3ξ) = CC(O)[C@H](N)C(=O)O; Carboxymethyl = O=C(O)C*; NMeA = CN[C@@H](C)C(=O)O; Aun = NCCCCCCCCCCC(=O)O; Dab = NCC[C@H](N)C(=O)O; AEEA = NCCOCCOCC(=O)O
Target: T1, PD-1/PD-L1 interaction (PE-labeled human PD-L1-Ig binding to Jurkat cell line over-expressing human PD-1) (Homo sapiens, UniProt Q15116)
T1 construct: expressed in transfected cells; host or cells: Jurkat
Assay: Jurkat-PD-1 Cell Binding High-Content Screening Assay (CBA)
Conditions: Jurkat-hPD-1 cells, PE-labeled PD-L1-Ig 20 nM final; read-out: Jurkat HPD1 PDL1 IC50
Summary of the method: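 Binding of 20 nM (final) PE-tagged PD-L1-Ig to compound-pretreated Jurkat-hPD-1 cells was measured by high-content imaging after 1 h. Pretreatment ran 2 h at 37 °C in DMEM with 10% fetal calf serum.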

T1 sequence (Q15116 25-288): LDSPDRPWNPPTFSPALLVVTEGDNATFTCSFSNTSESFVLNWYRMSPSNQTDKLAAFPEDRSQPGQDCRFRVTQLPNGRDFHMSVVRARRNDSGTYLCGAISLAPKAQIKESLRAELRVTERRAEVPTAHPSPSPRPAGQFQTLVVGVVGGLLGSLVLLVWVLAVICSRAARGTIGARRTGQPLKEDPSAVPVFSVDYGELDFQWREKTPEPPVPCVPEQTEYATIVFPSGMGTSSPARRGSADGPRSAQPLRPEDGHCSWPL

IC50 [nM] | Structure (SMILES)
44 | CC(C)C[C@H]1NC(=O)[C@H](C)N(C)C(=O)[C@H](CCC(N)=O)NC(=O)[C@H](Cc2ccc(-c3ccccc3)cc2)NC(=O)[C@H](Cc2ccc(C(=O)O)cc2)NC(=O)[C@H](Cc2cccc(C(F)(F)F)c2)NC(=O)[C@H](CC(=O)O)NC(=O)[C@H](Cc2ccc(OCC(=O)O)cc2)NC(=O)[C@H](Cc2ccc(C(=O)O)cc2)NC(=O)CSC[C@@H](C(=O)N[C@@H](CCN)C(=O)NCCOCCOCC(=O)N[C@@H](CCC(=O)NCCOCCOCC(=O)NCCCCCCCCCCCCC(=O)O)C(=O)O)NC(=O)[C@H](CO)NC(=O)[C@H](C(C)(C)O)NC(=O)[C@H](CC2CCCCC2)NC(=O)[C@H](CCN)NC1=O [Example 1184] ({CH2CO}-[Phe(4-COOH)]Y(Carboxymethyl)D[Phe(3-CF3)][Phe(4-COOH)][Bip]Q[NMeA][dL][Dab][Cha][Val(3-OH)]SC[Dab][AEEA][γGlu][AEEA]-{NH(CH2)12COOH}; thioether N-14)
21.9 | CCC(C)[C@@H]1NC(=O)[C@H](Cc2ccc(-c3ccccc3)cc2)NC(=O)[C@H](C(C)C)NC(=O)[C@H](Cc2c[nH]c3ccccc23)NC(=O)[C@H](CC(=O)O)NC(=O)[C@H](Cc2ccncc2)NC(=O)[C@H](Cc2ccc(OCC(=O)O)cc2)NC(=O)CSC[C@@H](C(=O)N[C@@H](CCCCN)C(=O)NCCOCCOCC(=O)NCCCCCCCCCCC(=O)O)NC(=O)[C@H](C(C)O)NC(=O)[C@H](C(C)C)NC(=O)[C@H](CC2CCCCC2)NC(=O)[C@H](CCN)NC(=O)[C@@H](CC(C)C)NC(=O)[C@H](C)N(C)C1=O (stereo partly drawn) [Example 2107] ({CH2CO}-Y(Carboxymethyl)[4Pal]DWV[Bip][Ile(3ξ)][NMeA][dL][Dab][Cha]V[Thr(3ξ)]CK[AEEA][Aun]-OH; thioether N-14)
9.7 | Cc1cccc(C[C@@H]2NC(=O)[C@H](CC(=O)O)NC(=O)[C@H](Cc3ccc(OCC(=O)O)cc3)NC(=O)[C@H](CCCNC(=N)N)NC(=O)CSC[C@@H](C(=O)N[C@@H](CCN)C(=O)NCCCCCCCCCCC(=O)O)NC(=O)[C@H](C(C)O)NC(=O)[C@H](C(C)C)NC(=O)[C@H](CC3CCCCC3)NC(=O)[C@H](CCN)NC(=O)[C@@H](CC(C)C)NC(=O)[C@H](C)N(C)C(=O)[C@H](CCC(N)=O)NC(=O)[C@H](Cc3ccc(-c4ccccc4)cc3)NC(=O)[C@H](C(C)C)NC2=O)c1 (stereo partly drawn) [Example 2233] ({CH2CO}-RY(Carboxymethyl)D[Phe(3-Me)]V[Bip]Q[NMeA][dL][Dab][Cha]V[Thr(3ξ)]C[Dab][Aun]-OH; thioether N-14)
6.8 | CC(C)C[C@@H]1NC(=O)[C@H](Cc2c[nH]c3ccccc23)NC(=O)[C@H](CC(=O)O)NC(=O)[C@H](Cc2ccncc2)NC(=O)[C@H](Cc2ccc(OCC(=O)O)cc2)NC(=O)CSC[C@@H](C(=O)N[C@@H](CCCCN)C(=O)NCCOCCOCC(=O)NCCCCCCCCCCC(=O)O)NC(=O)[C@H](CO)NC(=O)[C@H](C(C)C)NC(=O)[C@H](CC2CCCCC2)NC(=O)[C@H](CCN)NC(=O)[C@@H](CC(C)C)NC(=O)[C@H](C)N(C)C(=O)[C@H](C(C)C)NC(=O)[C@H](Cc2ccc(-c3ccccc3)cc2)NC1=O [Example 1091] ({CH2CO}-Y(Carboxymethyl)[4Pal]DWL[Bip]V[NMeA][dL][Dab][Cha]VSCK[AEEA][Aun]-OH; thioether N-14)

Same assay, conditions: PE-labeled PD-L1-Ig 20 nM final, Jurkat-hPD-1 cells; read-out: Jurkat HPD1 PDL1 IC50

IC50 [nM] | Structure (SMILES)
30 | CC(C)C[C@@H]1NC(=O)[C@H](Cc2c[nH]c3ccccc23)NC(=O)[C@H](CC(=O)O)NC(=O)[C@H](Cc2ccc(OCC(=O)O)cc2)NC(=O)[C@H](Cc2ccc(OCC(=O)O)cc2)NC(=O)CSC[C@@H](C(=O)N[C@@H](CCN)C(=O)NCCOCCOCC(=O)NCCOCCOCC(=O)NCCCCCCCCCCC(=O)O)NC(=O)[C@H](CCC(=O)O)NC(=O)[C@H](C(C)(C)O)NC(=O)[C@H](CC2CCCCC2)NC(=O)[C@H](CCN)NC(=O)[C@@H](CC(C)C)NC(=O)[C@H](C)N(C)C(=O)[C@H](CCC(N)=O)NC(=O)[C@H](Cc2ccc(-c3ccccc3)cc2)NC1=O [Example 2517] ({CH2CO}-Y(Carboxymethyl)Y(Carboxymethyl)DWL[Bip]Q[NMeA][dL][Dab][Cha][Val(3-OH)]EC[Dab][AEEA][AEEA][Aun]-OH; thioether N-14)
11.4 | CC(=O)NCCCC[C@@H]1NC(=O)[C@H](C(C)(C)O)NC(=O)[C@H](CC2CCCCC2)NC(=O)[C@H](CCN)NC(=O)[C@@H](CC(C)C)NC(=O)[C@H](C)N(C)C(=O)[C@H](Cc2ccc(C(=O)O)cc2)NC(=O)[C@H](Cc2ccc(-c3ccccc3)cc2)NC(=O)[C@H](Cc2ccc(C(=O)O)cc2)NC(=O)[C@H](Cc2cccc(C)c2)NC(=O)[C@H](CC(=O)O)NC(=O)[C@H](Cc2ccc(OCC(=O)O)cc2)NC(=O)[C@H](C(C)O)NC(=O)CSC[C@@H](C(=O)N[C@@H](CCN)C(=O)NCCOCCOCC(=O)N[C@@H](CCC(=O)NCCCCCCCCCCCCC(=O)O)C(=O)O)NC1=O (mixture of isomers) [Example 2659]
14.4 | Cc1cccc(C[C@@H]2NC(=O)[C@H](CC(=O)O)NC(=O)[C@H](Cc3ccc(OCC(=O)O)cc3)NC(=O)[C@H](Cc3ccsc3)NC(=O)CSC[C@@H](C(=O)N[C@@H](CCN)C(=O)NCCCCCCCCCCC(=O)O)NC(=O)[C@H](CO)NC(=O)[C@H](C(C)(C)O)NC(=O)[C@H](CC3CCCCC3)NC(=O)[C@H](CCN)NC(=O)[C@@H](CC(C)C)NC(=O)[C@H](C)N(C)C(=O)[C@H](Cc3ccc(C(=O)O)cc3)NC(=O)[C@H](Cc3ccc(-c4ccccc4)cc3)NC(=O)[C@H](Cc3ccc(C(=O)O)cc3)NC2=O)c1 [Example 2513] ({CH2CO}-[3Thi]Y(Carboxymethyl)D[Phe(3-Me)][Phe(4-COOH)][Bip][Phe(4-COOH)][NMeA][dL][Dab][Cha][Val(3-OH)]SC[Dab][Aun]-OH; thioether N-14)
9.2 | CC(C)C[C@H]1NC(=O)[C@H](C)N(C)C(=O)[C@H](Cc2ccc(OCC(=O)O)cc2)NC(=O)[C@H](Cc2ccc(-c3ccccc3)cc2)NC(=O)[C@H](Cc2ccc(C(=O)O)cc2)NC(=O)[C@H](Cc2cccc(C(F)(F)F)c2)NC(=O)[C@H](CC(=O)O)NC(=O)[C@H](Cc2ccc(OCC(=O)O)cc2)NC(=O)[C@H](Cc2cnc[nH]2)NC(=O)CSC[C@@H](C(=O)N[C@@H](CCN)C(=O)NCCCCCCCCCCC(=O)O)NC(=O)[C@H](CCC(=O)O)NC(=O)[C@H](C(C)C)NC(=O)[C@H](CC2CCCCC2)NC(=O)[C@H](CCN)NC1=O [Example 2581] ({CH2CO}-HY(Carboxymethyl)D[Phe(3-CF3)][Phe(4-COOH)][Bip]Y(Carboxymethyl)[NMeA][dL][Dab][Cha]VEC[Dab][Aun]-OH; thioether N-14)
8.7 | Cc1cccc(C[C@@H]2NC(=O)[C@H](CC(=O)O)NC(=O)[C@H](Cc3ccc(OCC(=O)O)cc3)NC(=O)[C@H](C(C)O)NC(=O)CSC[C@@H](C(=O)N[C@@H](CCN)C(=O)NCCOCCOCC(=O)NCCCCCCCCCCC(=O)O)NC(=O)[C@H](Cc3cnc[nH]3)NC(=O)[C@H](C(C)(C)O)NC(=O)[C@H](CC3CCCCC3)NC(=O)[C@H](CCN)NC(=O)[C@@H](CC(C)C)NC(=O)[C@H](C)N(C)C(=O)[C@H](Cc3ccc(OCC(=O)O)cc3)NC(=O)[C@H](Cc3ccc(-c4ccccc4)cc3)NC(=O)[C@H](Cc3ccc(OCC(=O)O)cc3)NC2=O)c1 (stereo partly drawn) [Example 2470] ({CH2CO}-[Thr(3ξ)]Y(Carboxymethyl)D[Phe(3-Me)]Y(Carboxymethyl)[Bip]Y(Carboxymethyl)[NMeA][dL][Dab][Cha][Val(3-OH)]HC[Dab][AEEA][Aun]-OH; thioether N-14)

— patent US20260070945A1, “MACROCYCLIC IMMUNOMODULATORS” (Bristol-Myers Squibb Company, priority 2022, published 2026)
